How the values were obtained:
Format in all cases: in vivo
[1] = tested on: Green Leafhopper (Nephotettix sp.); experiment: Green leafhopper foliar spray assay on rice
Procedure: (§1) A foliar spray assay and a root-uptake systemic assay were performed on both brown planthopper and green leafhopper. Four-week-old rice seedlings were submerged in 3-cm depth of water in the bottom portion (high 5 cm, diameter 3 cm) of a 2-part glass cylinder (high 18 cm, diameter 3 cm). A metal screen was used to hold the seedlings within the bottom portion. Scotch tape was used to bind the two portions of the cylinder after setting up the seedlings. A metal cap was used to cover the cylinder. There were 4 cylinders for each treatment. The test compound was dissolved in acetone to make a 10,000 ppm stock solution. For the foliar spray assay, this stock solution was diluted with water to make 10, 2.5, 0.31, 0.08 and 0.02 ppm test solutions. A volume of 0.5 ml of a test solution or solvent blank as check was sprayed into the glass cylinder. For systemic test, the stock solution was incorporated at final test concentrations of 10, 2.5, 0.31, 0.08 and 0.02 ppm in the water in which rice seedlings were submerged. In both foliar spray and systemic tests, five laboratory-reared 3rd instar nymphs of brown planthopper or green leafhopper were introduced into each cylinder 3 hr after insecticide application. The treated test units were kept in a growth chamber with conditions set as followings: Temperature 28±0.5° C.; Relative humidity 70±0.5%; Photoperiod […].

[2] = tested on: Brown Planthopper (Nilaparvata lugens); experiment: Brown planthopper root-uptake systemic assay on rice
Procedure: as §1

[3] = tested on: Cat Flea (Ctenocephalides felis); experiment: Cat flea filter wool assay; conditions: 48-hour observation
Procedure: Compound 2 was evaluated in a dose response series to establish the range of activity of the test compound. Technical material was dissolved in acetone and diluted with the same solvent to obtain the test concentrations. Bioassays were conducted by treating polyester aquarium filter wool with 1.0 ml of the test solution, thoroughly saturating the substrate and allowing it to dry for at least 1 hour. The dry filter wool was then placed into 10 cm plastic Petri dishes and covered with the lid. Each treatment was replicated 5 times. Approximately 15 unfed cat flea adults were placed into each replicate of each dosage being evaluated. Mortality was assessed at 2, 8, 24 and 48 hours after introduction of the fleas into the test system. The mean percent mortality for each dosage group and time interval was determined and results from the 48-hour observation are presented in Table 9.

[4] = tested on: Brown Planthopper (Nilaparvata lugens); experiment: Brown planthopper foliar spray assay on rice
Procedure: as §1

[5] = tested on: Green Peach Aphid (Myzus persicae); experiment: Green peach aphid root uptake assay on pepper; conditions: 3 days after infestation
Procedure: Systemic activity of compound 2 against green peach aphid was evaluated in a root uptake assay. Bell peppers (Capsicum annum var. California Wonder) was used as test plant seeded and grown in rock wool plugs. Plants were grown to expanding 1st true leaf stage. The rock wool plugs containing individual plants were placed in 1-ounce cups and surrounded with white clean sand. Five plants were used for each treatment. Stock solution of 1000 ppm was made by dissolving 2 mg of technical test compound in 2 mL acetone. The highest test concentration (10 ppm, 0.05 mg/5 ml) was prepared by diluting 0.32 mL stock solution with 1.6 mL acetone and 30.08 mL DI water, containing 6% acetone. Lower test concentrations were prepared by sequentially diluting 6.5 mL higher concentration (start from the 10 ppm test solution) with 26.0 ml acetone:DI water (6:94). A volume of 5 mL was applied to each cup (each plant). Use 6% acetone in water as solvent check. After insecticide application, the seedlings were infested with green peach aphids and held in a growth chamber (25° C., 50 R.H, 16 hr light: 8 hr drak). Number of live aphid on each plant was counted at 3 days after infestation. Calculations for % control were based on a corrected basis compared to the populations on the solvent check plants. Corrected % Control=100*(X−Y)/X • where X=No. of live aphids on solvent check plants • Y=No. of live aphids on treated plants The Corrected % Control values from lower test rates are given in Table 6.

[6] = tested on: Green Peach Aphid (Myzus persicae); experiment: Green peach aphid foliar spray assay on cabbage; conditions: 72 h, read-out: % Control at ppm, foliar spray, green peach aphid on cabbage
Procedure: Cabbage seedlings grown in 3-inch pots, with 2-3 small (3-5 cm) true leaves, were used as test substrate. The seedlings were infested with 20-50 green peach aphids (wingless adult and nymph) 2-3 days prior to chemical application. Four seedlings were used for each treatment. Compounds (2 mg) were dissolved in 2 ml of acetone:methanol (1:1) solvent, forming stock solutions of 1000 ppm. The stock solutions were then diluted with a diluent consisting 80 parts of 0.025% Tween 20 in […] and 20 parts of acetone:methanol (1:1). A hand-held Devilbiss sprayer was used for spraying the test solutions to both sides of cabbage leaves until runoff. Reference plants (solvent check) were sprayed with the diluent only. Treated plants were held in a holding room for three days at approximately 23° C. and 40% RH prior to grading. Evaluation was conducted by counting the number of live aphids per plant under a microscope. Insecticidal activity was measured by using Abbott's correction formula: Corrected % Control=100*(X−Y)/X • where X=No. of live aphids on solvent check plants • Y=No. of live aphids on treated plants The Corrected % Control values from assays are given in Table 2.

**Q.** How did the “% Control at ppm against green leafhopper” value ([1]; 0.02 ppm) turn out when `CC(c1ccc(C(F)(F)F)nc1)S(C)(=O)=NC#N` (centres unmarked) [Compound 2, [1-(6-trifluoromethylpyridin-3-yl)ethyl](methyl)-oxido-λ^4-sulfanylidenecyanamide] was run?
**A.** D (60-69)

**Q.** And the “% Control at ppm against green leafhopper” value ([1]; 0.08 ppm)?
**A.** A (90-100)

**Q.** And the “% Control at ppm against green leafhopper” value ([1]; 0.31 ppm)?
**A.** A (90-100)

**Q.** And the “% Control at ppm against green leafhopper” value ([1]; 2.5 ppm)?
**A.** A (90-100)

**Q.** And the “% Control at ppm against green leafhopper” value ([1]; 10 ppm)?
**A.** A (90-100)

**Q.** And the “% Control at ppm against brown planthopper” value ([2]; 0.02 ppm in water)?
**A.** F (Less than 50)

**Q.** What about the “% Control at ppm against brown planthopper” value ([2]; 0.08 ppm in water) of the same compound?
**A.** C (70-79)

**Q.** And the “% Control at ppm against brown planthopper” value ([2]; 0.31 ppm in water)?
**A.** A (90-100)

**Q.** What about the “% Control at ppm against brown planthopper” value ([2]; 2.5 ppm in water) of the same compound?
**A.** A (90-100)

**Q.** What about the “% Control at ppm against brown planthopper” value ([2]; 10 ppm in water) of the same compound?
**A.** A (90-100)

**Q.** And the mortality at 5 ppm ([3]; 5 ppm)?
**A.** 18%

**Q.** And the mortality at 50 ppm ([3]; 50 ppm)?
**A.** 25%

**Q.** And the mortality at 500 ppm ([3]; 500 ppm)?
**A.** 40%

**Q.** And the mortality at 5000 ppm ([3]; 5,000 ppm)?
**A.** 57%

**Q.** What about the “% Control at ppm against brown planthopper” value ([4]; 0.02 ppm) of the same compound?
**A.** F (Less than 50)

**Q.** What about the “% Control at ppm against brown planthopper” value ([4]; 0.08 ppm) of the same compound?
**A.** E (50-59)

**Q.** And the “% Control at ppm against brown planthopper” value ([4]; 0.31 ppm)?
**A.** A (90-100)

**Q.** And the “% Control at ppm against brown planthopper” value ([4]; 2.5 ppm)?
**A.** A (90-100)

**Q.** What about the “% Control at ppm against brown planthopper” value ([4]; 10 ppm) of the same compound?
**A.** A (90-100)

**Q.** And the “% Control, root uptake systemic, green peach aphid on pepper” value (“% Control, root uptake systemic” below) ([5]; 0.08 ug/plant)?
**A.** 61%

**Q.** And the “% Control, root uptake systemic” value ([5]; 0.4 ug/plant)?
**A.** 95%

**Q.** What about the “% Control, root uptake systemic” value ([5]; 2 ug/plant) of the same compound?
**A.** 100%

**Q.** And the “% Control, root uptake systemic” value ([5]; 10 ug/plant)?
**A.** 100%

**Q.** And the pest or weed control at 0.195 ppm [6]?
**A.** 80 to 89%

**Q.** And the pest or weed control at 0.781 ppm [6]?
**A.** 90 to 100%

**Q.** What about the pest or weed control at 3.125 ppm [6] of the same compound?
**A.** 90 to 100%
